The subject of one experiment is RERE. The experiment in a line: Chemoproteomic binding profiling, K562 cell extract, SAHA/ITF2357 probe matrix (Kd app), ELSA (ELM-SANT) domain protein. On the set-up: species or system human. The note with it: protein RERE; ELSA (ELM-SANT) domain proteins.
A further experiment deals with acetylated tubulin. The experiment in a line: Cell-based tubulin acetylation assay (immunofluorescence, western blotting). The note with it: for tubulin acetylation (in words): K562 and HeLa cells, immunofluorescence and western blotting. On the set-up: species or system human.
In another experiment the test system is MIER1. The experiment in a line: Chemoproteomic binding profiling, K562 cell extract, SAHA/ITF2357 probe matrix (Kd app), ELSA (ELM-SANT) domain protein. The note with it: ELSA (ELM-SANT) domain proteins. On the set-up: species or system human.
For another experiment, the system named is EHMT2. Briefly: Chemoproteomic binding profiling, K562 cell extract, SAHA/ITF2357 probe matrix (Kd app), ELSA (ELM-SANT) domain proteins group. The note with it: protein EHMT2. Further details: species or system human.
For experiment [1], the target named is T1, non-HDAC targets (e.g. BZW2, ISOC2, aldehyde dehydrogenases) (Homo sapiens, UniProt O94788).
T1 construct: endogenous in cells; host or cells: K562 whole cell extract
T1 sequence (O94788 1-518): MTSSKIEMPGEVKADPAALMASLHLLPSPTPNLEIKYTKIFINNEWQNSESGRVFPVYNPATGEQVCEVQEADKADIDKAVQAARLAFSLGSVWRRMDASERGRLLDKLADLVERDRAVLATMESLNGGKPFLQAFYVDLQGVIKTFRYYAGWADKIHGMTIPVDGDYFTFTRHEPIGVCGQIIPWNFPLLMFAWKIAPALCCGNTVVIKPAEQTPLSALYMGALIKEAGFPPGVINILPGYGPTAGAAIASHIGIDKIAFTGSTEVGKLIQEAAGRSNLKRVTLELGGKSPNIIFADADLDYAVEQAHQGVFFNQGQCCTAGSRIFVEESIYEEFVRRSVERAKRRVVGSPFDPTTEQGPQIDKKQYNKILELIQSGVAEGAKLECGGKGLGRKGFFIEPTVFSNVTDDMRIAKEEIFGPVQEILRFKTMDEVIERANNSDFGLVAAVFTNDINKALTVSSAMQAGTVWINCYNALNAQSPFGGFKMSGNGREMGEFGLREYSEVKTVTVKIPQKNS
Briefly: Chemoproteomic binding profiling, K562 cell extract, SAHA/ITF2357 probe matrix (Kd app). The note with it: protein ALDH1A2; selected HDACi off-targets.

Experiment [2] addresses T2, non-HDAC targets (e.g. BZW2, ISOC2, aldehyde dehydrogenases) (Homo sapiens, UniProt Q96AB3).
T2 construct: endogenous in cells; host or cells: K562 whole cell extract
T2 sequence (Q96AB3 1-205): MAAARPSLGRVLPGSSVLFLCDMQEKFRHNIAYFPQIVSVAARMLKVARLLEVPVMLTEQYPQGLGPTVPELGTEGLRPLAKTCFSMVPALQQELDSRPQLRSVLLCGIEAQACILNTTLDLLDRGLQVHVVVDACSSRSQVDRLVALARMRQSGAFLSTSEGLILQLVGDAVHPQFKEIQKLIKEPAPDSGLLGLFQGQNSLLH
The experiment is described as above. The note with it: protein ISOC2; selected HDACi off-targets.

Another experiment has as its system NuRD complex. The description is as above. On the set-up: species or system human.
Another experiment concerns the target T3, HDAC10 (Homo sapiens, UniProt Q969S8).
T3 construct: used to probe endogenous HDACs in K562 whole cell extracts; endogenous in cells
T3 sequence (Q969S8 1-669): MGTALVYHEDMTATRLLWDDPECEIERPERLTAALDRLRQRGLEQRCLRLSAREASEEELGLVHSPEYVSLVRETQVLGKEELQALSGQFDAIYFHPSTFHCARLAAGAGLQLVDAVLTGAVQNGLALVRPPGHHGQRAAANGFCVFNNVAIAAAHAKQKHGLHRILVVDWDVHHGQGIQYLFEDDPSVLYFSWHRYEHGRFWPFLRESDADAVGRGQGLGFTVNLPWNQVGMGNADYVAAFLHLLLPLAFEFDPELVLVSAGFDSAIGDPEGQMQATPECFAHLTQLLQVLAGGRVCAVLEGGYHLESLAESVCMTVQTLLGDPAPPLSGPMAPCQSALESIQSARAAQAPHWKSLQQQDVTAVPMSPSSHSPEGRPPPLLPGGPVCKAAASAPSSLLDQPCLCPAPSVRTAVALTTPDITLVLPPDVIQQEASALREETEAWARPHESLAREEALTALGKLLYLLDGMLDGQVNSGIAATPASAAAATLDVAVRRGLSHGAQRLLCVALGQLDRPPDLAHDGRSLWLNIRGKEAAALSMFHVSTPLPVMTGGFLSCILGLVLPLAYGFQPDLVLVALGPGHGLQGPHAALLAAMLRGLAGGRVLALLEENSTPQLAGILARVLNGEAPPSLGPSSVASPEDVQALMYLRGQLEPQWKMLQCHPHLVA
Described as above. The note with it: for binding profile for HDAC10 (in words): K562 cell extract.

Another experiment has as its target T4, PPP4C (Homo sapiens, UniProt P60510).
T4 construct: endogenous in cells
T4 sequence (P60510 1-307): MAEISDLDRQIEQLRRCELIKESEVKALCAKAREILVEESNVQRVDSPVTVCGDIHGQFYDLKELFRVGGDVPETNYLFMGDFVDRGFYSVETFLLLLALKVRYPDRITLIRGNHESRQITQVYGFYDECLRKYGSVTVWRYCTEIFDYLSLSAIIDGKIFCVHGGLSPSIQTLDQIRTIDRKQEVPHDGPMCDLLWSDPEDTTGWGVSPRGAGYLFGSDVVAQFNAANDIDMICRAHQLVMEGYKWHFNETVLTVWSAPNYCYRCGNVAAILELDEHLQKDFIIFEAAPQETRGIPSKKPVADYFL
The experiment in a line: Competition binding assay in cell lysate, affinity matrix, MS.

Setting [3] is: protein CHD4, NuRD complex, read-out: Kd^app CHD4.
Where [4] appears, read: protein GATAD2A, NuRD complex, read-out: Kd^app GATAD2A.
[5] abbreviates: protein GATAD2B, NuRD complex, read-out: Kd^app GATAD2B.
The mark [6] stands for this setting: protein MBD3, NuRD complex, read-out: Kd^app MBD3.
Where [7] appears, read: protein MTA1, NuRD complex, read-out: Kd^app MTA1.
Where [8] appears, read: protein MTA2, NuRD complex, read-out: Kd^app MTA2.
The mark [9] stands for this setting: protein MTA3, NuRD complex, read-out: Kd^app MTA3.
Where [10] appears, read: protein HDAC10, class II HDAC, read-out: Kd^app HDAC10.
Where [11] appears, read: protein MBD2, NuRD complex, read-out: Kd^app MBD2.

From US20130071854A1, “METHODS FOR THE IDENTIFICATION AND CHARACTERIZATION OF HDAC INTERACTING COMPOUNDS” (priority 2009, published 2013) come the findings set out here.

The EC50 is the concentration needed to bring the measured effect to its halfway point. A lower EC50 goes with a more potent agent. For orientation: IC50 means the concentration needed to halve the response being measured.

Where two headings read alike, the source gives them in different places.

On to `CCCCOc1ccc(CC(=O)NO)cc1` [bufexamac], for which the Kd with RERE is 33 µM; with MIER1, 367 µM; in the experiment with EHMT2, 105 µM; in [1], 3 µM; in experiment [2], 3 µM; in the experiment with NuRD complex (setting [3]) it was 386 µM. The Kd in the experiment on NuRD complex (setting [4]) is 572 µM; in the experiment with NuRD complex (setting [5]) it was > 59.7 µM; in the experiment with NuRD complex (setting [6]), 409 µM; in the experiment with NuRD complex (setting [7]), 168 µM; with NuRD complex (setting [8]) it was 555 µM; in the experiment with NuRD complex (setting [9]), 626 µM. In addition, the Kd at HDAC10 (setting [10]) is 10 µM. The compound further gave an EC50 in the experiment on acetylated tubulin (Homo sapiens, HeLa cells, treated 4 h, western blotting) of 2.9 µM. Also, the “tubulin acetylation (in words)” value is on record as “hyperacetylation of tubulin” in the experiment on acetylated tubulin and “strong increase in acetylated tubulin” with acetylated tubulin (listed as Bufexamac). Also, the “binding profile for HDAC10 (in words)” value at HDAC10 was “selectivity for HDAC6 and HDAC10”.

`O=C(CCCCCCC(=O)Nc1ccccc1)NO` [SAHA, suberoylanilide hydroxamic acid]: the IC50 at PPP4C (IC50, PPP4C, mix of Jurkat and Ramos cell lysates) is 10 µM; at PPP4C (read-out: IC50), ≥ 10 µM. Besides, the “tubulin acetylation (in words)” value in the experiment with acetylated tubulin is “increased steady state acetylation of tubulin and histones”.

For `CCCC(CCC)C(=O)O` [valproate, valproic acid], the Kd with RERE was 3120 µM; with MIER1 it was 507 µM; in the experiment on EHMT2 it was 1210 µM; in [1], > 10 µM; in experiment [2], > 10 µM; with NuRD complex (setting [3]), 544 µM. The Kd stood at 1040 µM in the experiment with NuRD complex (setting [4]); 843 µM with NuRD complex (setting [5]); 1300 µM in the experiment on NuRD complex (setting [11]); 930 µM in the experiment on NuRD complex (setting [6]); 528 µM in the experiment on NuRD complex (setting [7]); 997 µM in the experiment on NuRD complex (setting [8]). In addition, the Kd in the experiment on NuRD complex (setting [9]) is 667 µM; on HDAC10 (setting [10]), > 10 µM. For the same compound, in the experiment with acetylated tubulin, the “tubulin acetylation (in words)” value is reported as “did not affect tubulin”.

As to `Nc1ccccc1NC(=O)c1ccc(CNC(=O)OCc2cccnc2)cc1` [MS-275], the Kd (in the experiment on RERE; in the experiment on MIER1; with EHMT2; in experiment [1]; in experiment [2]; in the experiment on NuRD complex (read-out: Kd^app CHD4)) was > 300 µM throughout. Besides, the Kd with NuRD complex (read-out: Kd^app GATAD2A), with NuRD complex (read-out: Kd^app GATAD2B), in the experiment with NuRD complex (read-out: Kd^app MBD2), with NuRD complex (read-out: Kd^app MBD3), in the experiment on NuRD complex (read-out: Kd^app MTA1) and in the experiment with NuRD complex (read-out: Kd^app MTA2) was > 300 µM each time. Moreover, the Kd in the experiment on NuRD complex (read-out: Kd^app MTA3) is > 300 µM. For the same compound, the 50% inhibitory concentration (IC50) at PPP4C (read-out: IC50) was ≥ 300 µM.

With `Nc1ccccc1NC(=O)CCCCCCC(=O)Nc1ccccc1` [BML-210], the Kd in the experiment on RERE is > 85 µM; in the experiment on MIER1, 50 µM; in the experiment with EHMT2, > 85 µM; in [1], > 85 µM; in [2], > 85 µM; in the experiment on NuRD complex (setting [3]), 30 µM. Moreover, the Kd with NuRD complex (setting [4]) is > 85 µM; in the experiment with NuRD complex (setting [5]), 69 µM; with NuRD complex (setting [11]), 83 µM; in the experiment on NuRD complex (setting [6]) it was 59 µM; with NuRD complex (setting [7]) it was 15 µM; in the experiment with NuRD complex (setting [9]), 69 µM. Besides, the Kd at HDAC10 (setting [10]) is > 85 µM. Further, on HDAC10, the “binding profile for HDAC10 (in words)” value is listed as “complete loss of potency for class IIb”.

For `O=C(/C=C/c1cccc(S(=O)(=O)Nc2ccccc2)c1)NO` [belinostat], the Kd with MIER1 was 0.17 µM; in experiment [1], > 10 µM; in [2], > 10 µM; on HDAC10, 4.43 µM.
